# Target: T1, IRI1/LHT1 (Arabidopsis thaliana, UniProt Q9FKS8)
# T1 sequence (Q9FKS8 1-446): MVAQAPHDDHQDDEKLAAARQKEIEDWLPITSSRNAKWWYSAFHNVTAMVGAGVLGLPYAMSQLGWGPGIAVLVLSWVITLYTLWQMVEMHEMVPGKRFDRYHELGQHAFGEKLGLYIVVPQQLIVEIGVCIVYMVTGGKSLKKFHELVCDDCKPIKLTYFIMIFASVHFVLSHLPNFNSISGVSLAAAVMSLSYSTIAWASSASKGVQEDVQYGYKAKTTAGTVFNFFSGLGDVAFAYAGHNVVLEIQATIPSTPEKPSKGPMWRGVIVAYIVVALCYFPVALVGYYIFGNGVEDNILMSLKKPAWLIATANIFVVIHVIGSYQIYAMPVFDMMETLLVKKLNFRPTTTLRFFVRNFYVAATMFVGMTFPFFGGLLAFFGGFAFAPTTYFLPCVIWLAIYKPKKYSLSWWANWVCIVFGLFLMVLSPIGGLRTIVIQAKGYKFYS
# Test: inhibition of […]-L-Ala uptake in yeast
# Format: cell-based
row,Ki,SMILES
1,24.7 µM,"CC(N)CC(=O)O (racemic) [BABA, β-amino butyric acid]"
2,39.2 µM,"N[C@@H](CO)CC(=O)O [RBH, R-β-homoserine]"

# — article doi:10.1101/2022.03.17.484770v1 (biorxiv, 2022)
